Data as given in ChEMBL document CHEMBL1126274, “Mapping the binding site of tissue kallikrein: preparation and testing of all possible substrate analog inhibitors homologous with the sequence of kininogen between Ser386 and Gln392” (J Med Chem, 1992).
Residues, ends and D or L forms follow the SMILES beside them.

Tests used:
Glandular kallikrein = molecular target: T1, Glandular kallikrein (Sus scrofa, UniProt P00752); assay: Inhibitory activity against beta-kallikrein
T1 sequence (P00752 whole entry): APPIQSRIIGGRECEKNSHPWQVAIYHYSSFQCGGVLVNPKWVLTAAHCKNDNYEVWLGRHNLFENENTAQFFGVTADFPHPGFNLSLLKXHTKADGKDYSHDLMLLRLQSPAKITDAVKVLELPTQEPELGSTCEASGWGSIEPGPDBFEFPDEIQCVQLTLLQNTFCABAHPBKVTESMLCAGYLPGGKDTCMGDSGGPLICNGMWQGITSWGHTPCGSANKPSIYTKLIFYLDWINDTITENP

[1] = molecular target: T2, Kallikrein 1 (Sus scrofa) (UniProt O97506); assay: Compound was evaluated for inhibitory activity against beta-kallikrein; No inhibition at 0.5 mM concentration
T2 sequence (whole entry): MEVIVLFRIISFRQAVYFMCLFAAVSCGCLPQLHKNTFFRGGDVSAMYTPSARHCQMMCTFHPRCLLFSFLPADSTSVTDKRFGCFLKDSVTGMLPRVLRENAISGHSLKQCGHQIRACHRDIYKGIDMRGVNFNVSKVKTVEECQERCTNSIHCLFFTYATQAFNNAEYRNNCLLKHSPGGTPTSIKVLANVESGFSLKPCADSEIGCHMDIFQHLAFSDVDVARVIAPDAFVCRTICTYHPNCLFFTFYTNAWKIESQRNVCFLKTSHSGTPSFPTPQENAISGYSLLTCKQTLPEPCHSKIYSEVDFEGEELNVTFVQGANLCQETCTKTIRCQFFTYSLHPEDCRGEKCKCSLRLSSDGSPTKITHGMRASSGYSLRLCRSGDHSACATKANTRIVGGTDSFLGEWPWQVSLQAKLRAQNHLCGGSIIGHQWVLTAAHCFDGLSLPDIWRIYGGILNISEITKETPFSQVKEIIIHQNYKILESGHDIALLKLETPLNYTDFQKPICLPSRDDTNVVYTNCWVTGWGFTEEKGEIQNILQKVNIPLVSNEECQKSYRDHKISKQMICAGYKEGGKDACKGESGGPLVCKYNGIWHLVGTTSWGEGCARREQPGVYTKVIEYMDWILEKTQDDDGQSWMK

[2] = molecular target: T2, Kallikrein 1 (Sus scrofa); assay: Compound was evaluated for inhibitory activity against beta-kallikrein; No inhibition at 28 mM concentration
[3] = molecular target: T2, Kallikrein 1 (Sus scrofa); assay: Compound was evaluated for inhibitory activity against beta-kallikrein; No inhibition at 20 mM concentration
[4] = molecular target: T2, Kallikrein 1 (Sus scrofa); assay: Compound was evaluated for inhibitory activity against beta-kallikrein; No inhibition at 1 mM concentration

Compound	Ki (Glandular kallikrein)	further results
Ac-SPFRS-NH2	223 µM	
Ac-SPFRSV-NH2	135 µM	
CC(=O)N[C@@H](Cc1ccccc1)C(=O)N[C@@H](CCCNC(=N)N)C(=O)N[C@@H](CO)C(N)=O (Ac-Phe-Arg-Ser-NH2)	718 µM	
CC(=O)N[C@@H](Cc1ccccc1)C(=O)N[C@@H](CCCNC(=N)N)C(=O)N[C@@H](CO)C(=O)N[C@H](C(N)=O)C(C)C (Ac-FRSV-NH2)	479 µM	
Ac-SPFRSVQ-NH2	101 µM	
CC(=O)N[C@@H](CO)C(=O)N1CCC[C@H]1C(=O)N[C@@H](Cc1ccccc1)C(N)=O (Ac-Ser-Pro-Phe-NH2)		inhibition [1]: No inhibition
CC(=O)N[C@@H](CO)C(=O)N1CCC[C@H]1C(N)=O (Ac-Ser-Pro-NH2)		inhibition [1]: No inhibition
CC(=O)N[C@H](C(=O)N[C@@H](CCC(N)=O)C(N)=O)C(C)C (Ac-Val-Gln-NH2)		inhibition [2]: No inhibition
CC(=O)N[C@@H](CCCN=C(N)N)C(=O)N[C@@H](CO)C(=O)N[C@H](C(N)=O)C(C)C (Ac-Arg-Ser-Val-NH2)		inhibition [1]: No inhibition
Ac-PFRSV-NH2	266 µM	
CC(=O)N[C@@H](CO)C(=O)N[C@H](C(=O)N[C@@H](CCC(N)=O)C(N)=O)C(C)C (Ac-Ser-Val-Gln-NH2)		inhibition [3]: No inhibition
Ac-FRSVQ-NH2	230 µM	
CC(=O)N[C@@H](CCCNC(=N)N)C(=O)N[C@@H](CO)C(=O)N[C@H](C(=O)N[C@@H](CCC(N)=O)C(N)=O)C(C)C (Ac-RSVQ-NH2)	950 µM	
CC(=O)N[C@@H](Cc1ccccc1)C(=O)N[C@@H](CCCN=C(N)N)C(N)=O (Ac-Phe-Arg-NH2)		inhibition [4]: No inhibition
Ac-PFRSVQ-NH2	167 µM	
CC(=O)N[C@@H](CCCN=C(N)N)C(=O)N[C@@H](CO)C(N)=O (Ac-Arg-Ser-NH2)		inhibition [1]: No inhibition
CC(=O)N[C@@H](CO)C(=O)N[C@H](C(N)=O)C(C)C (Ac-Ser-Val-NH2)		inhibition [1]: No inhibition
CC(=O)N1CCC[C@H]1C(=O)N[C@@H](Cc1ccccc1)C(N)=O (Ac-Pro-Phe-NH2)		inhibition [4]: No inhibition
CC(=O)N1CCC[C@H]1C(=O)N[C@@H](Cc1ccccc1)C(=O)N[C@@H](CCCN=C(N)N)C(=O)N[C@@H](CO)C(N)=O (Ac-PFRS-NH2)	578 µM	
CC(=O)N1CCC[C@H]1C(=O)N[C@@H](Cc1ccccc1)C(=O)N[C@@H](CCCN=C(N)N)C(N)=O (Ac-Pro-Phe-Arg-NH2)		inhibition [1]: No inhibition
CC(=O)N[C@@H](CO)C(=O)N1CCC[C@H]1C(=O)N[C@@H](Cc1ccccc1)C(=O)N[C@@H](CCCN=C(N)N)C(N)=O (Ac-SPFR-NH2)	2290 µM	
